Measured values reported in patent US20230172894A1, “COMBINATION TREATMENT FOR FUMARATE-RELATED DISEASES” (IMCYSE SA, priority 2020, published 2023).
Structures can show the parent of a compound that is named as a salt. Where two headings read alike, the source gives them in different places.

Legend:
[1] = tested on: experimental auto-immune encephalomyelitis (EAE) development in mice; details: Example 1; for AUC (area under the curve) of EAE scores: day 7 to 28 scoring; for AUC (area under the curve) of EAE scores / end score (clinical EAE score 0-5) / MMS (mean maximal score): vs negative control; for AUC (area under the curve) of EAE scores / disease onset / end score (clinical EAE score 0-5) / MMS (mean maximal score): combination also vs each single treatment; for disease onset / end score (clinical EAE score 0-5): peptide 100 μg/Alum s.c. days −21, −14, −7, BG-12 100 mg/kg p.o. BID days 0 to 27; for disease onset: vs negative control (Saline/Vehicle)
Text: Example 1: Effect of the prophylactic administration of an immunogenic peptide comprising a MOG35-55 MHCII T cell epitope and a HCPYC oxidoreductase motif in combination with dimethyl fumarate (BG-12, […]™) on experimental auto-immune encephalomyelitis (EAE) development in mice.
The study used a total of 64 female C57BL/6 mice (Taconic Biosciences, 10 weeks old on Day 0). Mice were acclimated for 8 days prior to the first injection. Mice were assigned to groups in a balanced manner to achieve similar average weight across the groups at the start of the study.
Treatment 1 was administered once on each of the days indicated in Table 1, s.c., at a volume of 0.05 mL/site, each mouse receiving injection at two sites, for a total of 0.1 mL/mouse/dosing day, corresponding to 100 μg of peptide.
BG-12 was dosed at 100 mg/kg. All dosing was done at the same time (+/−1 hour) each dosing day. For the BID groups there were no less than 10 and no more than 14 hours between doses.
For Treatment 1, 0.9% NaCl solution was prepared at each dosing day. […] (SEQ ID NO: 185), comprising an oxidoreductase motif HCPYC (SEQ ID NO: 71), a linker GW, a murine Myelin Oligodendrocyte Glycoprotein (MOG35-55) MHCII T cell epitope […] (SEQ ID NO: 169) and a flanking sequence HLYR (SEQ ID NO: 186) (Smart Bioscience) was solubilized immediately before use. Lyophilized IMCY-0189 was thawed at room temperature for 10 minutes, resuspended in Na Acetate buffer 50 mM pH 5.4 and incubated at room temperature for 5 minutes. Reconstituted peptide was then mixed with Imject™ Alum Adjuvant before injection.
For Treatment 2, vehicle was 0.5% HPMC, 0.2% Tween 20, and 50 mM citrate buffer at pH 4. BG-12 (or […]™, from Santa Cruz Biotechnology, catalog number sc-239774) was prepared once a week. At each preparation the required amount of BG-12 was weighed out into a mortar and triturated with a pestle. Vehicle was then added in small increments and mixed until the final volume was reached. The material was then vortexed and sonicated in a water bath until a homogeneous suspension was obtained. Formulated BG-12 was stored at 4° C., stirring continuously.
EAE was induced in all mice as follows: • Day 0, Hour 0—Immunization with a peptide corresponding to the amino acids 35-55 of MOG (MOG35-55)/CFA • Day 0, Hour 2—Injection of pertussis toxin • Day 1, Hour 0-2nd injection of pertussis toxin (24 hours after initial immunization).
Mice were injected subcutaneously at two sites in the back with the emulsion component (containing MOG35-55) of Hooke Kit™ MOG35-55/CFA Emulsion PTX, catalog number EK-2110 (lot #127, Hooke Laboratories, Lawrence Mass.). One site of injection was in the area of upper back, approximately 1 cm caudal of the neck line. The second site was in the area of lower back, approximately 2 cm cranial of the base of the tail. The injection volume was 0.1 mL at each site. Each mouse received 200 μg of MOG35-55.
Within 2 hours of the injection of emulsion, and then again 24 hours after the injection of emulsion, the pertussis toxin component of the kit was administered intraperitoneally. The pertussis toxin (lot #1008, Hooke Laboratories) was administered at 100 ng/dose for both injections and the volume of each injection was 0.1 mL.
Animals were scored daily starting from Day 7 to the end of the study. Scoring was performed blind, by a person unaware of both treatment and of previous scores for each mouse. In-between scores were assigned when the clinical signs fell between two above defined scores.
AUC, MMS, inflammation and demyelination, and NF-L levels quantification data were analyzed by performing Ordinary one-way ANOVA. Adjustment for multiplicity was performed using Holm-Sidak's method. Significant differences are referred as follows: *p<0.05, **p<0.01, ***p<0.001, ****p<0.0001.
(§1) EAE development was evaluated by comparing clinical EAE readouts for all groups to the negative control (Saline/Vehicle) group.

[2] = tested on: experimental auto-immune encephalomyelitis (EAE) development in mice; details: Example 2; for mice died in group: 16 mice per group; for disease onset: peptide 30 μg/Alum s.c. days 4, 9, 14, 19, BG-12 100 mg/kg p.o. BID days 0 to 27; for disease onset / AUC (area under the curve) of EAE scores / MMS (mean maximal score) / end score (clinical EAE score 0-5): single agents vs negative control, combinations vs peptides only or BG-12 only
Text: Example 2: Effect of the therapeutic administration of an immunogenic peptide comprising a MOG35-55 MHCII T cell epitope linked or not to an HCPYC oxidoreductase motif in combination with dimethyl fumarate (BG-12, […]™) on experimental auto-immune encephalomyelitis (EAE) development in mice.
The study used a total of 96 female C57BL/6 mice (Taconic Biosciences, 10 weeks old on Day 0). Mice were acclimated for 14 days prior to the first injection. Mice were assigned to groups in a balanced manner to achieve similar average weight across the groups at the start of the study.
Treatment 1 was administered once on each of the days indicated in Table 3, s.c., at a volume of 0.05 mL/site, each mouse receiving injection at two sites, for a total of 0.1 mL/mouse/dosing day. IMCY-0189 or MOG35-55 peptide total dose was 30 μg per administration.
BG-12 was dosed at 100 mg/kg.
All dosing were done at the same time (+/−1 hour) each dosing day. For the BID groups there were no less than 10 and no more than 14 hours between doses.
Lyophilized mouse MOG35-55 peptide with the sequence […] (SEQ ID NO:205), comprising the mouse Myelin Oligodendrocyte Glycoprotein (MOG35-55) MHCII T cell epitope […] (SEQ ID NO:169), was solubilized immediately before use. Lyophilized MOG35-55 peptide was thawed at room temperature for 10 minutes, resuspended in Na Acetate buffer 50 mM NaCl 0.9% pH 5.4 and incubated at room temperature for 10 minutes. Reconstituted MOG35-55 peptide was then mixed with Imject™ Alum Adjuvant before injection. Note that the positions 35 to 55 refer to the mature protein, i.e. after cleavage of the signal peptide (AA 1-29), defined by SEQ ID NO: 208. In the full-length amino acid sequence of MOG (SEQ ID NO: 184), said peptide would be at positions 64-84.
Lyophilized IMCY-0189 was thawed at room temperature for 10 minutes, resuspended in Na Acetate buffer 50 mM NaCl 0.9% pH 5.4 and incubated at room temperature for 10 minutes. Reconstituted peptide was then mixed with Imject™ Alum Adjuvant before injection.
For Treatment 2, vehicle was 0.5% HPMC, 0.2% Tween 20, and 50 mM citrate buffer at pH 4. BG-12 (Santa Cruz Biotechnology, sc-239774) and was prepared at least every 2 weeks. At each preparation the required amount of BG-12 was weighed out into a mortar and triturated with a pestle. Vehicle was then added in small increments and mixed until the final volume was reached. The material was then vortexed and sonicated in a water bath until a homogeneous suspension was obtained. Formulated BG-12 was stored at 4° C., stirring continuously.
EAE induction, scoring and statistical analysis were performed as described in example 1.
as §1

Compound | mice died in group ([1]; 16 mice per group) | AUC (area under the curve) of EAE scores [1] | disease onset [1] | end score (clinical EAE score 0-5) [1] | MMS (mean maximal score) [1] | mice died in group [2] | disease onset [2] | AUC (area under the curve) of EAE scores [2] | MMS (mean maximal score) [2] | end score (clinical EAE score 0-5) [2] | mice died due to severe EAE ([1]; 16 mice per group) [mouse]
COC(=O)/C=C/C(=O)OC [BG-12, dimethyl fumarate, reference compound] | No mice died | statistically significant reduced | postponed disease onset | reduced end score | statistically significant reduced | No mice died | postponed disease onset | statistically significant reduced | statistically significant reduced | reduced end score | 
HCPYCGWYRSPFSRVVHLYR [IMCY-0189] | 2 mice | statistically significant reduced | postponed disease onset | reduced end score | statistically significant reduced | 1 mice | postponed disease onset | statistically significant reduced | statistically significant reduced | reduced end score | 1
